Cc1coc2c1C(=O)C(=O)c1c-2ccc2c(C)cccc12
solubility (mole fraction)
Conditions | 278.15 K | 283.15 K | 288.15 K | 293.15 K | 298.15 K | 303.15 K | 308.15 K | 313.15 K | 318.15 K | 323.15 K
in DMF | 0.000919 | 0.00106 | 0.00125 | 0.00146 | 0.00169 | 0.00193 | 0.0022 | 0.00249 | 0.00288 | 0.00335
in acetone | 0.00103 | 0.0012 | 0.0014 | 0.00164 | 0.00194 | 0.00221 | 0.00253 | 0.00287 | 0.00324 | 0.0036
in ethanol | 6.4e-05 | 8.08e-05 | 9.82e-05 | 0.00012 | 0.000144 | 0.000167 | 0.000198 | 0.000233 | 0.000275 | 0.000332
in ethylene glycol | 8.39e-05 | 9.79e-05 | 0.000114 | 0.000132 | 0.000152 | 0.000175 | 0.000201 | 0.000232 | 0.000269 | 0.000317
in isopropanol | 0.00029 | 0.000334 | 0.000395 | 0.000456 | 0.000535 | 0.000626 | 0.000729 | 0.000849 | 0.00101 | 0.0012
in methanol | 5.56e-05 | 6.11e-05 | 6.79e-05 | 7.64e-05 | 8.61e-05 | 9.8e-05 | 0.000111 | 0.00013 | 0.000154 | 0.000182
in n-butanol | 0.000574 | 0.000636 | 0.000706 | 0.000793 | 0.000903 | 0.00103 | 0.00117 | 0.00135 | 0.00154 | 0.00178
in n-propanol | 0.000448 | 0.00051 | 0.000575 | 0.00067 | 0.000756 | 0.000866 | 0.000987 | 0.00113 | 0.0013 | 0.00151
in water | 5.28e-08 | 5.74e-08 | 6.23e-08 | 6.81e-08 | 7.47e-08 | 8.25e-08 | 9.26e-08 | 1.04e-07 | 1.17e-07 | 1.34e-07

From BigSolDB 2.1
